# Reference: patent publication US11596639B2, “Substituted indole Mcl-1 inhibitors” (Vanderbilt University, priority 2016, dated 2023)
# Where two headings read alike, the source gives them in different places.
# Experiments:
# [1] = target: Mcl-1 (Homo sapiens (Human), UniProt Q07820); assay: Fluorescence polarization anisotropy (FPA) competition assay, FITC-Bak or FITC-Bim BH3 peptide; type: binding; details: read-out: Ki for Inhibition of Mcl-1 by FPA assay
# [2] = test system: H929 human cancer cell lines; assay: Cellular viability / proliferation (Cell TiterGlo, 72 h); type: cell-based
# Outline: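 Top dose 50 μM, serially diluted 2-fold, applied one day after seeding (1,000 cells/well, 10% FBS), DMSO below 1%.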
# [3] = Homo sapiens, NCI-H929, 72 h, read-out: GI50 on cellular proliferation of H929 human cancer cell lines, H929 cells, 72 h, Cell TiterGlo, 10% FBS
# [4] = H929 cells, 72 h, Cell TiterGlo, 10% FBS, read-out: GI50 on cellular proliferation of H929 human cancer cell lines
# Chain of Mcl-1 (Q07820 172-327): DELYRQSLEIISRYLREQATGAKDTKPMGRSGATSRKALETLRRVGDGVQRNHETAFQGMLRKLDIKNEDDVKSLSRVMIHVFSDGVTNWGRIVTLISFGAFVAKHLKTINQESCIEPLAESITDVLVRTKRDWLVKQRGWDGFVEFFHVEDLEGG
Molecule,Ki [1] [nM],"GI50 [2, 3] [nM]","GI50 [2, 4] [nM]"
"Cc1cc(OCCCc2c3n(c4c(-c5c(C)nn(C)c5C)c(Cl)ccc24)[C@H](C)CN(c2ccnc4ccc(C(=O)O)cc24)C3=O)cc(C)c1Cl [Example 172, (R)-4-(7-Chloro-10-(3-(4-chloro-3,5-dimethylphenoxy)propyl)-4-methyl-1-oxo-6-(1,3,5-trimethyl-1H-pyrazol-4-yl)-3,4-dihydropyrazino[1,2-a]indol-2(1H)-yl)quinoline-6-carboxylic acid]",< 1,320,
"Cc1cc(OCCCc2c3n(c4c(-c5c(C)nc(COCc6ccccc6)nc5C)c(Cl)ccc24)CCCN(c2cn(C)c4ccc(C(=O)O)cc24)C3=O)cc(C)c1Cl [Example 294, 3-[7-[2-(benzyloxymethyl)-4,6-dimethyl-pyrimidin-5-yl]-8-chloro-11-[3-(4-chloro-3,5-dimethyl-phenoxy)propyl]-1-oxo-4,5-dihydro-3H-[1,4]diazepino[1,2-a]indol-2-yl]-1-methyl-indole-5-carboxylic acid]",< 1,2000,
"Cc1cc(OCCCc2c3n(c4c(-c5c(C)nc(CN6CCCC6)nc5C)c(Cl)ccc24)[C@H](C)CN(c2cn(C)c4ccc(C(=O)O)cc24)C3=O)cc(C)c1Cl [Example 390, (R)-3-(7-Chloro-10-(3-(4-chloro-3,5-dimethylphenoxy)propyl)-6-(4,6-dimethyl-2-(pyrrolidin-1-ylmethyl)pyrimidin-5-yl)-4-methyl-1-oxo-3,4-dihydropyrazino[1,2-a]indol-2(1H)-yl)-1-methyl-1H-indole-5-carboxylic acid]",2.3,340,
"Cc1cc(OCCCc2c3n(c4c(-c5c(C)nn(C)c5C)c(Cl)ccc24)[C@H](C)CN(c2nccc4cc(C(N)=O)ccc24)C3=O)cc(C)c1Cl [Example 375, (R)-1-(7-Chloro-10-(3-(4-chloro-3,5-dimethylphenoxy)propyl)-4-methyl-1-oxo-6-(1,3,5-trimethyl-1H-pyrazol-4-yl)-3,4-dihydropyrazino[1,2-a]indol-2(1H)-yl)isoquinoline-6-carboxamide]",10,2500,
"COc1cccc(Cn2c(C(=O)O)cc3cccc(N4C[C@@H](C)n5c(c(CCCOc6cc(C)c(Cl)c(C)c6)c6ccc(Cl)c(-c7c(C)nn(C)c7C)c65)C4=O)c32)n1 [Example 360, (R)-7-(7-Chloro-10-(3-(4-chloro-3,5-dimethylphenoxy)propyl)-4-methyl-1-oxo-6-(1,3,5-trimethyl-1H-pyrazol-4-yl)-3,4-dihydropyrazino[1,2-a]indol-2(1H)-yl)-1-((6-methoxypyridin-2-yl)methyl)-1H-indole-2-carboxylic acid]",2.5,2500,
"Cc1cc(OCCCc2c3n(c4c(-c5c(C)nn(C)c5C)c(Cl)ccc24)[C@H](C)CN(c2nn(C)c4cc(C(=O)O)ccc24)C3=O)cc(C)c1Cl [Example 48, (R)-3-(7-chloro-10-(3-(4-chloro-3,5-dimethylphenoxy)propyl)-4-methyl-1-oxo-6-(1,3,5-trimethyl-1H-pyrazol-4-yl)-3,4-dihydropyrazino[1,2-a]indol-2(1H)-yl)-1-methyl-1H-indazole-6-carboxylic acid]",< 1,800,
"Cc1cc(OCCCc2c3n(c4c(-c5c(C)nn(C)c5C)c(Cl)ccc24)[C@H](C)CN(c2cccc4c2cc(C(=O)O)n4C(C)C)C3=O)cc(C)c1Cl [Example 197, (R)-4-(7-Chloro-10-(3-(4-chloro-3,5-dimethylphenoxy)propyl)-4-methyl-1-oxo-6-(1,3,5-trimethyl-1H-pyrazol-4-yl)-3,4-dihydropyrazino[1,2-a]indol-2(1H)-yl)-1-isopropyl-1H-indole-2-carboxylic acid]",< 1,670,
"Cc1cc(OCCCc2c3n(c4c(-c5c(C)nn(C)c5C)c(Cl)ccc24)[C@H](C)CN(c2cccc4ccc(C(=O)O)cc24)C3=O)cc(C)c1Cl [Example 349, (M, R)-8-(7-Chloro-10-(3-(4-chloro-3,5-dimethylphenoxy)propyl)-4-methyl-1-oxo-6-(1,3,5-trimethyl-1H-pyrazol-4-yl)-3,4-dihydropyrazino[1,2-a]indol-2(1H)-yl)-2-naphthoic acid]",2.8,,780
"Cc1cc(OCCCc2c3n(c4c(-c5c(C)ncnc5C)c(Cl)ccc24)CCCN(c2cn(C)c4ccc(C(=O)O)cc24)C3=O)cc(C)c1Cl [Example 156, 3-[8-Chloro-11-[3-(4-chloro-3,5-dimethyl-phenoxy)propyl]-7-(4,6-dimethylpyrimidin-5-yl)-1-oxo-4,5-dihydro-3H-[1,4]diazepino[1,2-a]indol-2-yl]-1-methyl-indole-5-carboxylic acid]",< 1,260,
"(R)-3-(7-chloro-10-(3-(4-chloro-3,5-dimethylphenoxy)propyl)-6-(3,5-dimethyl-1-((1-methylpiperidin-4-yl)methyl)-1H-pyrazol-4-yl)-4-methyl-1-oxo-3,4-dihydropyrazino[1,2-a]indol-2(1H)-yl)-1-methyl-1H-indole-5-carboxylic acid [Example 146]",4,,2400
"Cc1cc(OCCCc2c3n(c4c(-c5c(C)nn(C)c5C)c(Cl)ccc24)[C@H](C)CN(c2cccc4ccc(C(=O)O)cc24)C3=O)cc(C)c1Cl [Example 368, (P, R)-8-(7-Chloro-10-(3-(4-chloro-3,5-dimethylphenoxy)propyl)-4-methyl-1-oxo-6-(1,3,5-trimethyl-1H-pyrazol-4-yl)-3,4-dihydropyrazino[1,2-a]indol-2(1H)-yl)-2-naphthoic acid]",1.4,,620
"Cc1nn(C)c(C)c1-c1c(Cl)ccc2c(CCCOc3ccccc3)c3n(c12)[C@H](C)CN(c1cn(C)c2ccc(C(=O)O)cc12)C3=O [Example 408, (R)-3-(7-Chloro-4-methyl-1-oxo-10-(3-phenoxypropyl)-6-(1,3,5-trimethyl-1H-pyrazol-4-yl)-3,4-dihydropyrazino[1,2-a]indol-2(1H)-yl)-1-methyl-1H-indole-5-carboxylic acid]",2.2,3200,
"Cc1cc(OCCCc2c3n(c4c(-c5c(C)nn(C)c5C)c(Cl)ccc24)[C@H](C)CN(c2ccc(O)c4cc(C(=O)O)n(C)c24)C3=O)cc(C)c1Cl [Example 321, (M, R)-7-(7-Chloro-10-(3-(4-chloro-3,5-dimethylphenoxy)propyl)-4-methyl-1-oxo-6-(1,3,5-trimethyl-1H-pyrazol-4-yl)-3,4-dihydropyrazino[1,2-a]indol-2(1H)-yl)-4-hydroxy-1-methyl-1H-indole-2-carboxylic acid]",< 1,,1400
"Cc1cc(OCCCc2c3n(c4c(-c5c(C)nn(C)c5C)c(Cl)ccc24)[C@H](C)CN(c2cccc4cc(C(=O)O)n(Cc5cscn5)c24)C3=O)cc(C)c1Cl [Example 304, 7-[(4R)-7-chloro-10-[3-(4-chloro-3,5-dimethyl-phenoxy)propyl]-4-methyl-1-oxo-6-(1,3,5-trimethylpyrazol-4-yl)-3,4-dihydropyrazino[1,2-a]indol-2-yl]-1-(thiazol-4-ylmethyl)indole-2-carboxylic acid]",< 1,370,
